Source: patent publication US6803368B2, “Antipsychotic aminomethyl derivatives of 7,8-dihydro-3H-6,9-dioxa-1,3-diaza-cyclopenta[a]naphthalene” (Wyeth, priority 2001, dated 2004)

These compounds were tested against T1, dopamine D2 receptor (Rattus norvegicus, UniProt P61169) (assay: Dopamine D2 receptor affinity, 3H-quinpirole binding in homogenized rat striatal brain tissue).
T1 construct: from tissue; host or cells: rat striatal brain tissue homogenate
Experimental: Affinity for the dopamine D2 receptor was established by a modification of the standard experimental test procedure of Seemen and Schaus, European Journal of Pharmacology 203: 105-109, 1991, wherein homogenized rat striatal brain tissue is incubated with ^3H-quinpirole and various concentrations of test compound, filtered and washed and counted in a Betaplate scintillation counter.

T1 sequence (P61169 whole entry): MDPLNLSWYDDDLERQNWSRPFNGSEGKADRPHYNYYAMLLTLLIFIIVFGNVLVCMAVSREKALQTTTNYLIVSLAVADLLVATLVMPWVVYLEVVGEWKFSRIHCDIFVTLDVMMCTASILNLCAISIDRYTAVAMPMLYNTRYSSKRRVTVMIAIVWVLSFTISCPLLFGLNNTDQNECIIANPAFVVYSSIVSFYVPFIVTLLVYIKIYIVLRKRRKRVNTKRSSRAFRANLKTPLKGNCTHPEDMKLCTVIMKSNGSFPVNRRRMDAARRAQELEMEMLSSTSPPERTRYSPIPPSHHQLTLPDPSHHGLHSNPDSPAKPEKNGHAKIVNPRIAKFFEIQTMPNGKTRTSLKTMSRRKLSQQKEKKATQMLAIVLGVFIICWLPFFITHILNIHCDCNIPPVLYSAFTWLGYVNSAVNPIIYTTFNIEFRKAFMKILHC

IC50	Compound
0.4 nM	FC(F)(F)c1nc2c3c(ccc2[nH]1)OC[C@H](CNCCCCc1ccccc1)O3 [Example 2, (4-Phenyl-butyl)-(2-trifluoromethyl-7,8-dihydro-3H-6,9-dioxa-1,3-diaza-cyclopenta[a]naphthalen-8-ylmethyl)-amine]
2.2 nM	FC(F)(F)c1nc2c3c(ccc2[nH]1)OCC(CNCc1ccccc1)O3 (stereo not drawn) [Example 3, Benzyl-(2-trifluoromethyl-7,8-dihydro-3H-6,9-dioxa-1,3-diaza-cyclopenta[a]naphthalen-8-ylmethyl)-amine]

Compound	IC50
(2-Trifluoromethyl-7,8-dihydro-3H-6,9-dioxa-1,3-diaza-cyclopenta[a]naphthalen-8-yl)-methylamine [Example 1]	260 nM
